From patent US12509431B2, “1,4-dihydroquinazolinone compounds and uses thereof” (Edgewise Therapeutics, Inc., priority 2022, dated 2025)

Assays:
Assay type in all cases: biochemical
[1] = biological target: T1, Porcine Ventricle myofibrils (left ventricle of Yucatan minipigs) (Sus scrofa, UniProt P79293); assay: Myofibril ATPase assay (PK/LDH NADH-coupled), ventricle myofibrils
T1 construct: Myofibrils from porcine cardiac muscle was isolated from the left ventricle of Yucatan minipigs; tissue Exemplar Genetics; host or cells: left ventricle of Yucatan minipigs
T1 sequence (P79293 whole entry): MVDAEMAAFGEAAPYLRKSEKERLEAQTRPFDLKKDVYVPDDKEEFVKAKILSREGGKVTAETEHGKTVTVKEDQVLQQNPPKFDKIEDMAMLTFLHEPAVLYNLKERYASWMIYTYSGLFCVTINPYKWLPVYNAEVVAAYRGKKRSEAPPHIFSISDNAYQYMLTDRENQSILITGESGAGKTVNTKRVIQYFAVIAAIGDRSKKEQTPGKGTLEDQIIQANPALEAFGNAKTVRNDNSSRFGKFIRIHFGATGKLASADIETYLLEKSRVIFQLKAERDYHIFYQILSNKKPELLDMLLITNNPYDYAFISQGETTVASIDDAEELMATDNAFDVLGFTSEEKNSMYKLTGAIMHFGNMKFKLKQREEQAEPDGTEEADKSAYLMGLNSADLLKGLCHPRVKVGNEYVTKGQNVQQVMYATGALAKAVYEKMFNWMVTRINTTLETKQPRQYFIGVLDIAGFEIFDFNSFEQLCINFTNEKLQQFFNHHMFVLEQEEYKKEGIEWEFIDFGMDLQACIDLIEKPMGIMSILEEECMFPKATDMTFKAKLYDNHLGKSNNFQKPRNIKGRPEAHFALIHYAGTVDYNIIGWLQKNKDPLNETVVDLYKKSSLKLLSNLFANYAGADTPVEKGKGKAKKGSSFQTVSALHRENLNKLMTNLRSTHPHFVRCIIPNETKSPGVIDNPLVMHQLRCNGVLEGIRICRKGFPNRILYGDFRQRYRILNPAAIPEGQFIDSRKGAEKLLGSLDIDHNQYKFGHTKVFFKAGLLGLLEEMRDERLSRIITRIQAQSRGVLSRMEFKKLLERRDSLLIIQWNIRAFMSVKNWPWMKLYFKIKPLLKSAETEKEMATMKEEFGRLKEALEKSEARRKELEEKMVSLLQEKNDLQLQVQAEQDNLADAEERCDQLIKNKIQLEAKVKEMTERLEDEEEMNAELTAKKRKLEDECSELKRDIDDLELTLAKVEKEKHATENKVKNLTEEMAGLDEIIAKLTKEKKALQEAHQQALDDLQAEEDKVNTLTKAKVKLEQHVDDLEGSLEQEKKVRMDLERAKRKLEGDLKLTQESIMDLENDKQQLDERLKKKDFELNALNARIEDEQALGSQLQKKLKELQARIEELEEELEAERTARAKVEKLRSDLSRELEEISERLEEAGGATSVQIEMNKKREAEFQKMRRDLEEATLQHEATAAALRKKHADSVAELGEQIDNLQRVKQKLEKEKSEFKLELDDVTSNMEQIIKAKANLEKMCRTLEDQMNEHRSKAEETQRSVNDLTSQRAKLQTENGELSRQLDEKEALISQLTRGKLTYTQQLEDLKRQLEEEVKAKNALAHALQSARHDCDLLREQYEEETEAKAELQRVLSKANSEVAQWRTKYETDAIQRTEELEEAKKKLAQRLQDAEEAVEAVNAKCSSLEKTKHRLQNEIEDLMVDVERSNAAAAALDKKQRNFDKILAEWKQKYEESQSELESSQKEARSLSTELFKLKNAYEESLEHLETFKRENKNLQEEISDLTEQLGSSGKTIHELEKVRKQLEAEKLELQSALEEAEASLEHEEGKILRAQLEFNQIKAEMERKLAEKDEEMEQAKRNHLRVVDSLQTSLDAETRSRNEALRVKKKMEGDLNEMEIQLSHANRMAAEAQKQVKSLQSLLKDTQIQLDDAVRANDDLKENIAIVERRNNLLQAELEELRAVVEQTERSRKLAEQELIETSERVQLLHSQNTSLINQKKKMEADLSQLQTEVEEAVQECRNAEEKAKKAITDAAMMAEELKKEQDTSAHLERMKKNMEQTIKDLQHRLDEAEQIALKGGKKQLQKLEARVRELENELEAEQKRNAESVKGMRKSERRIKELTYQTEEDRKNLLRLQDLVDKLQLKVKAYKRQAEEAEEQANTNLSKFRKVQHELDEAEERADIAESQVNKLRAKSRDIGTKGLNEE
In short: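 Yucatan minipig left-ventricle myofibrils; ATPase measured by PK/LDH-coupled NADH loss at 340 nm, read every 1.5-2 min for 75 min. Slopes normalized to vehicle (100%) and fit to 4-parameter logistic model; EC25 and, for inhibitors, EC50 calculated.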

myosin+native RLC = biological target: T2, myosin+native RLC (Sus scrofa, UniProt P79293); assay: NADH-coupled actin-activated ATPase assay, myosin + native RLC; conditions: 1 μM myosin, rabbit skeletal actin, 25° C., 1% DMSO
T2 construct: Full-length myosin was resuspended to 1 mg/mL
T2 sequence (P79293 whole entry): as above
Protocol: (§1) Full-length myosin was resuspended to 1 mg/mL in a buffer containing 500 mM KCl, 10 mM KPi, 15 mM CDTA, pH 8.5. Triton-X was then added to a final concentration of […], and the suspension was agitated for 15 minutes at room temperature to selectively remove the regulatory light chain (RLC). RLC-removed myosin was then precipitated and collected and resuspended in a buffer containing 400 mM KCl, 50 mM Mops, pH 7, 2 mM MgCl2, and 1 mM DTT. Recombinantly expressed and purified human ventricle RLC was added in a 3-fold molar excess to myosin and incubated on ice for 2 hours to allow for reassociation of the RLC onto myosin. Triton (0.1%) was added to the reaction to prevent any non-specific binding events. RLC-exchanged myosin was then precipitated and collected and resuspended in a buffer containing 12 mM PIPES, pH 6.8, […], 2 mM MgCl2, and 1 mM DTT. RLC removal and exchange were confirmed by SDS-PAGE and proteins were visualized using coomassie stain.
(§2) Myosin was resuspended in buffer A (f.c.=12 mM PIPES, pH 6.8, 30 mM KCl, 2 mM MgCl2, 1 mM DTT, 0.1 mg/mL BSA, 0.01% (v/v) Antifoam 204, and 0.6% (v/v) PK/LDH (final reaction contains ≥3.6 U/mL PK and >5.4 U/mL LDH)) at final concentrations of 1 μM for myosin+native RLC and 2 μM for myosin+removed RLC and myosin+human ventricle RLC. Buffer A was then mixed with an equal volume of buffer B (f.c.=12 mM PIPES, pH 6.8, 30 mM KCl, 2 mM MgCl2, 1 mM DTT, 0.1 mg/mL BSA, 0.01% (v/v) Antifoam 204, 0.5 mM NADH, 1.5 mM phosphoenolpyruvate, 1 mM ATP, and 0.3 mg/mL filamentous rabbit skeletal actin) in a 384-well plate. Dose-dependent compound effects were assessed by adding the compounds at varying concentrations between 100 μM and 2 nM, all with a constant final DMSO concentration of 1% v/v. The reactions were run at a constant temperature of 25° C. in the plate reader to monitor the change in A340 over time. Measurements were taken every 90 sec for 75 min to generate raw time-domain absorbance data, which was processed to normalized reaction rates. Normalized enzymatic rates were calculated, using rates observed in 1% (v/v) in DMSO as 100% and 0 slope as 0%. Compound-specific activity curves were generated by plotting the normalized rates versus compound concentration and fitting the data to a 4-parameter logistic model. In addition to the fit parameters, the IC25% was calculated, relative to the 100% normalized value.

[2] = biological target: T3, myosin+human ventricle RLC (Sus scrofa, UniProt P79293); assay: NADH-coupled actin-activated ATPase assay, myosin + human ventricle RLC; conditions: 2 μM myosin, rabbit skeletal actin, 25° C., 1% DMSO
T3 construct: Full-length myosin was resuspended to 1 mg/mL
T3 sequence (P79293 whole entry): as above
Protocol: as §1, §2

myosin+removed RLC = biological target: T4, myosin+removed RLC (Sus scrofa, UniProt P79293); assay: NADH-coupled actin-activated ATPase assay, myosin + removed RLC; conditions: 2 μM myosin, rabbit skeletal actin, 25° C., 1% DMSO
T4 construct: Full-length myosin was resuspended to 1 mg/mL
T4 sequence (P79293 whole entry): as above
Protocol: as §1, §2

| Compound | Porcine Ventricle IC25 ([1]; Table 8) | Potency, Full-length myosin + native porcine ventricle RLC (myosin+native RLC) | Potency, Full-length myosin + exchanged human ventricle RLC [2] | Potency, Full-length myosin + RLC removed (myosin+removed RLC) | Porcine Ventricle IC25 ([1]; Table 7) |
| --- | --- | --- | --- | --- | --- |
| N#Cc1cnc2c(c1)OCC2NC(=O)CN1Cc2c(ccc(F)c2F)NC1=O (single isomer, unassigned) [Compound B65] | 0.1667 µM | 0.55 µM | 0.69 µM | >100.0 µM |  |
| C[C@@H](NC(=O)CN1Cc2c(ccc(F)c2F)NC1=O)c1ncc(C#N)cc1F [Compound B141, (R)—N-(1-(5-cyano-3-fluoropyridin-2-yl)ethyl)-2-(5,6-difluoro-2-oxo-1,4-dihydroquinazolin-3(2H)-yl)acetamide] | 3.094 µM | 15.48 µM | 13.90 µM | >100.0 µM |  |
| O=C(CN1Cc2cc(F)ccc2NC1=O)N[C@@H]1COc2cc(F)cc(F)c21 [Compound B145] | 0.0512 µM | 1.19 µM | 0.67 µM | >100.0 µM |  |
| O=C(CN1Cc2c(ccc(F)c2F)NC1=O)N[C@@H]1COc2cc(F)cc(F)c21 [Compound B147] | 0.07766 µM | 0.63 µM | 0.48 µM | >100.0 µM |  |
| C[C@H](NC(=O)CN1Cc2c(ccc(F)c2F)NC1=O)c1ccc(C#N)cc1F [Compound B189] | 0.07743 µM | 0.39 µM | 0.33 µM | >100.0 µM |  |
| C[C@H](NC(=O)CN1Cc2c(ccc(F)c2F)NC1=O)c1ncc(F)cc1F [Compound B191] | 0.1913 µM | 0.45 µM | 0.44 µM | >100.0 µM |  |

Next, values leading:

| Porcine Ventricle IC25 ([1]; Table 8) | Potency, Full-length myosin + native porcine ventricle RLC (myosin+native RLC) | Potency, Full-length myosin + exchanged human ventricle RLC [2] | Potency, Full-length myosin + RLC removed (myosin+removed RLC) | Porcine Ventricle IC25 ([1]; Table 7) | Compound |
| --- | --- | --- | --- | --- | --- |
| 0.04769 µM | 0.97 µM | 0.68 µM | >100.0 µM |  | CC(NC(=O)CN1Cc2cc(F)ccc2NC1=O)c1ccc(C#N)cc1F (single isomer, unassigned) [Compound B206] |
| 0.5693 µM | 0.56 µM | 0.629 µM | >100.0 µM |  | C[C@H](NC(=O)CN1Cc2cc(F)ccc2NC1=O)c1ncc(C#N)cc1F [Compound B199] |
| 0.2968 µM | 0.97 µM | 1.02 µM | >100.0 µM |  | C[C@H](NC(=O)CN1Cc2cc(F)ccc2NC1=O)c1ccc(F)cc1F [Compound B247, N-[(1S)-1-(2,4-Difluorophenyl)ethyl]-2-(6-fluoro-2-oxo-1,4-dihydroquinazolin-3-yl)acetamide] |
|  | 0.40 µM | 0.40 µM | >100.0 µM | 0.2832 µM | O=C(CN1C(=O)Nc2cccnc2C12CC2)N[C@@H]1COc2cc(F)cc(F)c21 [Compound N33] |
